Assay: Reverse phase HPLC, degradation products (purity), stability study
Format: physicochemical
Conditions: storage two months (eight weeks) at 4° C., 25° C. and 37° C.
Description: Reverse phase HPLC was used along with visual observations which were conducted at each time point to monitor any precipitation or cloudiness.
The formulations were incubated at 4° C., 25° C. and 37° C. and analyzed for a) degradation products, b) pH stability and c) formulation clarity.
Reverse phase HPLC was used to visualize degradation products.

C[C@H](CCC(=O)[O-])[C@H]1CCC2C3CC[C@@H]4C[C@H](O)CC[C@]4(C)C3C[C@H](O)[C@@]21C.[Na+] (stereo partly drawn) [sodium deoxycholate, sodium (4R)-4-((3R,5R,10S,12S,13R,17R)-3,12-dihydroxy-10,13-dimethylhexadecahydro-1H-cyclopenta[a]phenanthren-17-yl)pentanoate]
chemical degradation by reverse phase HPLC: no degradation

From patent publication US10071105B2, “Formulations of deoxycholic acid and salts thereof” (Kythera Biopharmaceuticals, Inc., priority 2009, dated 2018)
